# Measured values from BindingDB's records for doi:10.1080/14756360903179351 (University of Tehran, 2010).
# “And” between values parts separate entries of the source, which are not always exact repeats. Identical values can stand only once. Counter-ions that a name gives are not always drawn.
# Target: T1, Polyphenol oxidase 1 (White button mushroom, UniProt Q00024)
# T1 sequence (Q00024 whole entry): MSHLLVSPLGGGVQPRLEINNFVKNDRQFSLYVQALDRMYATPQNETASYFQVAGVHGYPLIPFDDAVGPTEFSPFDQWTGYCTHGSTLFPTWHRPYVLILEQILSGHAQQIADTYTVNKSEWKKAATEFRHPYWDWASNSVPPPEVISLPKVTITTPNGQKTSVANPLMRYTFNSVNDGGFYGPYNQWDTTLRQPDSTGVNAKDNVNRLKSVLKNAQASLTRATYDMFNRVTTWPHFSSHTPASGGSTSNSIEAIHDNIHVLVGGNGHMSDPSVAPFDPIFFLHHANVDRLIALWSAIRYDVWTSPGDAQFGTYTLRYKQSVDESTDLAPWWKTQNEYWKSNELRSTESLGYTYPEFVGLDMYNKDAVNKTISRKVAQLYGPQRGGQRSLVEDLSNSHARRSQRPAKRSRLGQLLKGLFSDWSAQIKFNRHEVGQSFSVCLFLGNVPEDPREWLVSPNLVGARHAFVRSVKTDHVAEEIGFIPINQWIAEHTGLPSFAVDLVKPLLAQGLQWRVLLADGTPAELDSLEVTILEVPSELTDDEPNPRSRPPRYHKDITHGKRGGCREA
# Experiment: MT Kinetic Assay
# Details: pH 6.8
# Experimental: The assay was performed as previously described with slight modifications [Chen et al., J. Agric. Food Chem., 50:4108-12]. The reaction medium was 1 mL in 50 mM phosphate buffer (pH 6.8). The final concentration of mushroom tyrosinase was 26.07 μg/mL for cresolase activity and 6.52 μg/mL for catecholase activity. Freshly prepared enzyme, substrate, and dithiocarbamates I and II were used in this work. The reaction was carried out under constant temperatures of 27 and 37°C. Substrate addition followed incubation of the enzyme with different concentrations of synthetic inhibitors.
Compound,Ki (27 °C),Ki (37 °C)
S=C(S)NCc1ccccc1,14.1 µM and 9.4 µM,5.9 µM and 5.7 µM
S=C(S)NCc1ccc(CNC(=S)S)cc1 [p-Xylidine-bis(dithiocarbamate) sodium salt (II)],0.64 µM and 0.29 µM,0.95 µM and 1.05 µM
